Several values for one entry are separate records, joined by “and”; a condition that tells them apart may be missing. Identical values can stand only once.
How the values were obtained:
[1] = system: Colombiana strain of Trypanosoma cruzi; test: Mouse model of T. cruzi infection: parasitemia, survival and natural relapse; format: in vivo
[2] = system: Colombiana strain of Trypanosoma cruzi; test: Assessment of therapeutic failure after cyclophosphamide immunosuppression; format: in vivo; details: for Blood parasite load determined by qPCR: n=5, after cyclophosphamide; for Blood parasite load determined by qPCR / % Negative blood qPCR: VFV in 10 % DMSO plus 5 % Gum Arabic; for % Blood parasite clearence (negative qPCR): n=10, after cyclophosphamide immunosuppression, VFV in DGAT; for % Negative blood qPCR: surviving mice n=5, after cyclophosphamide
[3] = PK studies in mice after single oral administration; format: in vivo; details: for Life time (time until compound becomes undetectable, below 0.1 μM): mice plasma; for Life time (time until compound becomes undetectable, below 0.1 μM) / Bioavailability when Tween 80 was added to the vehicle (DGAT vs HPCD): single oral 25 mg/kg; for Bioavailability when Tween 80 was added to the vehicle (DGAT vs HPCD): mice; for Tmax: mouse, po, 25 mg/kg
[4] = system: CYP3A4; details: read-out: CYP3A4 IC50; cited from earlier work
[5] = cited from earlier work
[6] = system: NIH/3T3; details: cited from earlier work
[7] = cited from earlier work; remark: listed apart in the source
[8] = cited from earlier work; remark: listed apart in the source
[9] = Swiss male mice n=5, 60 days po, VNI and VFV in 10 % DMSO plus 5 % Gum Arabic
[10] = Swiss male mice n=10, 60 days po, VFV in DGAT

SMILES: O=C(Cn1ccnc1[N+](=O)[O-])NCc1ccccc1 [Bz, benznidazole, reference compound]
- % Animal survival [1, 9]: 100%
- Natural relapse after the therapy [1, 9]: all animals and 5 out of 5 mice
- % Animal survival [1, 10]: 100%
- Natural relapse after the therapy [1, 10]: 6 mice and 6 out of 10 mice
- Blood parasite load determined by qPCR [2]: 13038 ± 13612
- % Blood parasite clearence (negative qPCR) [2]: 30%
- % Negative blood qPCR [2]: 0%

SMILES: O=C(N[C@@H](Cn1ccnc1)c1ccc(Cl)cc1Cl)c1ccc(-c2nnc(-c3ccccc3)o2)cc1 [VNI, (R)-N-(1-(2,4-dichlorophenyl)-2-(1H-imidazol-1-yl)ethyl)-4-(5-phenyl-1,3,4-oxadi-azol-2 yl)benzamide]
- % Animal survival [1, 9]: 100%
- % Parasitemia suppression [1, 9]: 99.9%
- Natural relapse after the therapy [1, 9]: 3 out of five and 3 out of 5 mice
- Blood parasite load determined by qPCR [2]: 372 ± 528
- Sustained negative parasitemia after cyclophosphamide (light microscopy) ([2]; n=5, 10 % DMSO plus 5 % Gum Arabic vehicle): 20%
- % Negative blood qPCR [2]: 20%
- Life time (time until compound becomes undetectable, below 0.1 μM) ([3]; DGAT formulation): 16 h
- Life time (time until compound becomes undetectable, below 0.1 μM) ([3]; HPCD formulation): 10 h
- Bioavailability when Tween 80 was added to the vehicle (DGAT vs HPCD) [3]: three-fold higher bioavailability
- Tmax ([3]; plasma): 2 h

SMILES: O=C(N[C@@H](Cn1ccnc1)c1ccc(-c2ccc(F)cc2)cc1F)c1ccc(-c2nnc(-c3ccccc3)o2)cc1 [VFV, (R)-N-(1-(3,4′-difluorobiphenyl-4-yl)-2-(1H-imidazol-1-yl)ethyl)-4-(5-phenyl-1,3,4oxadiazol-2-yl)benzamide]
- EC25 (cellular toxicity) [6]: > 50 µM
- IC50 [4]: 3.6 µM
- NOAEL (in vivo toxicity) [7]: > 200 mg/kg
- % Animal survival [1, 9]: 100%
- Natural relapse after the therapy [1, 9]: all animals and 5 out of 5 mice
- % Animal survival [1, 10]: 100%
- % Parasitemia suppression [1, 10]: 99.8%
- Natural relapse after the therapy [1, 10]: 5 mice and 5 out of 10 mice
- Hepatic clearance [8]: moderate hepatic clearance
- Blood parasite load determined by qPCR [2]: 905 ± 854
- % Blood parasite clearence (negative qPCR) [2]: 0%
- % Negative blood qPCR [2]: 0%
- Life time (time until compound becomes undetectable, below 0.1 μM) ([3]; HPCD formulation): <24 h
- Bioavailability when Tween 80 was added to the vehicle (DGAT vs HPCD) [3]: three-fold higher bioavailability
- Tmax ([3]; in vivo): 4 h
